Measurements published in PMC2614658 (Antiviral Research, 2008).
Read-outs that look alike come from different tables or passages of the source.

Columns and labels:
influenza A/WSN/33 virus [1] = conditions: ∼6 μM PMA
influenza A/WSN/33 virus [2] = test system: influenza A/WSN/33 virus
[3] = test system: influenza B/Yamagata/88 virus; assay type: cell-based
A549 cells = conditions: 24 h treatment, MTS assay
[4] = test system: Newcastle disease virus (NDV/B1); assay type: cell-based
[5] = test system: vesicular stomatitis virus (VSV-GFP); assay type: cell-based
influenza A/WSN/33 virus [6] = assay type: cell-based
in vitro = conditions: human
influenza A/WSN/33 virus [7] = experiment: microbe, parasite or virus in culture; conditions: A549, 24 h
influenza A/WSN/33 virus [8] = experiment: in vitro; conditions: human
[9] = read-out: IC50 (compound concentration of 50% inhibition of viral replication)

Question: With `CCCCCCCCCCCCCC(=O)O[C@@H]1[C@@H](C)[C@@]2(O)[C@@H](C=C(CO)C[C@]3(O)C(=O)C(C)=C[C@@H]23)[C@@H]2C(C)(C)[C@]12OC(C)=O` [PMA, phorbol 12-myristate 13-acetate] as the compound, how does the “toxicity at the concentration used in the screen” value (influenza A/WSN/33 virus [1]) read?
Answer: toxic

Question: What about the “increase in viral titer compared to untreated control” value (influenza A/WSN/33 virus [2]) of the same compound?
Answer: 12 fold

Question: For `N#Cc1cc2c(OCC(O)CN3CCN(C(c4ccccc4)c4ccccc4)CC3)cccc2[nH]1` (stereo not shown) [SDZ-201106], which “reduction in viral titers compared to untreated control” value (“reduction in viral titers” below) [3] is on record?
Answer: 72%

Question: And the “concentrations found to be non-toxic / not decreasing cell viability” value (A549 cells)?
Answer: up to 12.5 μM

Question: And the “SI (CC50/IC50), selective index” value (influenza A/WSN/33 virus [2])?
Answer: 7

Question: And the “reduction in viral titers” value (influenza A/WSN/33 virus [2])?
Answer: 85%

Question: What about the IC50 (influenza A/WSN/33 virus [2]; [9]) of the same compound?
Answer: 4.1 µM

Question: For `CC(=O)O[C@H]1C[C@H](O[C@H]2[C@@H](O)C[C@H](O[C@H]3[C@@H](O)C[C@H](O[C@H]4CC[C@@]5(C)[C@H](CC[C@@H]6[C@@H]5C[C@@H](O)[C@]5(C)[C@@H](C7=CC(=O)OC7)CC[C@]65O)C4)O[C@@H]3C)O[C@@H]2C)O[C@H](C)[C@H]1O[C@@H]1O[C@H](CO)[C@@H](O)[C@H](O)[C@H]1O` [lanatoside C], which “effect on viral replication” value [4] is on record?
Answer: significantly inhibit

Question: And the “effect on viral replication” value [5]?
Answer: significantly inhibit

Question: What about the “decrease in viral titers compared to untreated control” value (influenza A/WSN/33 virus [2]; […], 20 nM ouabain or 78 nM lanatoside C) of the same compound?
Answer: 95.9%

Question: What does the source list for `C=C(C)[C@@]12O[C@@]3(c4ccccc4)O[C@@H]1[C@@H]1[C@@H]4O[C@]4(CO)[C@@H](O)[C@]4(O)C(=O)C(C)=C[C@H]4[C@@]1(O3)[C@H](C)[C@H]2OC(=O)/C=C/C=C/c1ccccc1` [mezerein]?
Answer: increase in viral titers (influenza A/WSN/33 virus [6]): 15 fold; increase in viral titer compared to untreated cells [3]: eightfold

Question: Which “effect on viral replication” value [4] does the source give for `C[C@@H]1O[C@@H](O[C@H]2C[C@@H](O)[C@]3(CO)[C@H]4[C@H](O)C[C@]5(C)[C@@H](C6=CC(=O)OC6)CC[C@]5(O)[C@@H]4CC[C@]3(O)C2)[C@H](O)[C@H](O)[C@H]1O` [ouabain] here?
Answer: significantly inhibit

Question: What about the “effect on viral replication” value [5] of the same compound?
Answer: significantly inhibit

Question: What about the “decrease in viral titers compared to untreated control” value (influenza A/WSN/33 virus [2]) of the same compound?
Answer: 99.1%

Question: With `CC(=O)c1c(O)c(C)c(O)c(Cc2c(O)c3c(c(C(=O)/C=C/c4ccccc4)c2O)OC(C)(C)C=C3)c1O` [rottlerin] as the compound, how does the CC50 (in vitro) read?
Answer: 18.2 µM

Question: And the IC50 (influenza A/WSN/33 virus [7]; [9])?
Answer: 0.46 µM

Question: And the IC50 (influenza A/WSN/33 virus [7]; read-out: IC50 (half maximal inhibitory concentration))?
Answer: 0.465 µM

Question: What about the selectivity ratio (influenza A/WSN/33 virus [8]) of the same compound?
Answer: 39

Question: What about the “reduction in viral titers” value [3] of the same compound?
Answer: 80%

Question: What about the “concentrations found to be non-toxic / not decreasing cell viability” value (A549 cells) of the same compound?
Answer: up to 1.28 μM

Question: What about the “reduction in viral titers” value (influenza A/WSN/33 virus [2]) of the same compound?
Answer: 93%
